Columns and labels:
Assay type in all cases: in vivo
mice [1] = experiment: Spontaneous motor activity in mice after oral administration (induction of sedation); settings: for ED50: Mus musculus, oral administration, spontaneous motor activity, read-out: ED50 sedation (dose that induces sedation in 50% of animals)
Experimental: The effect of oral administration of both indiplon and the compound of the present invention on the spontaneous motor activity in mice is an accepted model to evaluate the induction of the sedation, an experiment considered predictive of hypnotic efficacy. In this experiment, the ED50—the dose that induces sedation in 50% of animals—was calculated.

mice [2] = experiment: EEG recording of the sleep-wake cycle in mice; settings: FIG. 7; for Effect on the three sleep parameters (time of wake, slow wave sleep, paradoxical sleep): mice, EEG, doses ED50, 3-fold and 6-fold
Experimental: This increased sedative/hypnotic efficacy was confirmed by electroencephalographyc (EEG) experiments, when the recording of the sleep-wake cycle in mice was evaluated. Based on the previous experiment, doses were chosen and both compounds were tested at equipotent pharmacological doses (the ED50, 3-fold and 6-fold for both cases).
In FIG. 7, results are expressed as the mean time (min±SEM) spent in each behavioral state during a recording period of 6 h in the same animals (n=9).

mice [3] = experiment: Two-way active avoidance paradigm in mice (amnesia liability); settings: oral administration; for MED amnesia (minimal effective dose that induces statistically significant impairment of memory): two-way active avoidance
Experimental: Finally, a third experiment to evaluate adverse effects was performed. The model was the two-way active avoidance paradigm, which represents a behavioural test useful for evaluating learning and memory processes in mice. In this case, the amnesia liability index was obtained. Since it was reported that benzodiazepine-like drugs induce amnesia, this index allows to determine the margin between the preclinical effective doses that induce sedation compared to the minimal effective dose that induce statistically significant impairment of memory in mice (MED amnesia/ED50 sedation). Therefore, the amnesic liability index was calculated for both compounds. The results obtained are included in Table 1

[4] = mice n=9, 6 h recording period, largest dose

Row | SMILES | ED50 (mice [1]) [mg/kg] | Slow wave sleep (SWS) mean time (mice [2]; [4]) | Effect on the three sleep parameters (time of wake, slow wave sleep, paradoxical sleep) (mice [2]) | Amnesic liability Index (MED amnesia/ED50 sedation) (mice [3]) [fold margin] | MED amnesia (minimal effective dose that induces statistically significant impairment of memory) (mice [3]) [mg/kg] | Sedative potency relative to indiplon (more potent) (mice [1]; oral, ED50 0.13 vs 0.2 mg/Kg) [%] | Paradoxical sleep (PS) time, change (mice [2]; [4]) | Waking (W) time, change (mice [2]; [4]) | Greater margin between sedation induction and amnesia than indiplon (mice [3]) [fold]
1 | CC(=O)N(C)c1cccc(-c2ccnc3c(C(=O)c4cccs4)cnn23)c1 [Indiplon, N-{3-[3-(thiophene-2-carbonyl)-pyrazolo[1,5-a]pyrimidin-7-yl]-phenyl}-N-methyl-acetamide, reference compound] | 0.2 | less than 140 min | effective only in one parameter (slow wave sleep) | 50 | 10 | – | – | – | –
2 | CC(=O)N(C)c1cc(-c2ccnc3c(C(=O)c4cccs4)cnn23)ccc1F [Compound (I), N-{2-Fluoro-5-[3-(thiophene-2-carbonyl)-pyrazolo[1,5-a]pyrimidin-7-yl]-phenyl}-N-methyl-acetamide] | 0.13 | up to 140 min | statistically significant improvement on all three of the parameters evaluated | 75 | 10 | 35 | increase | decrease | 25
